Tests used:
[1] = test system: CFTR, S549N/F508del HBEs; assay: Ussing measurements, class III mutation hBEs (S549N/F508del); format: cell-based, human; settings: Ivacaftor 1 uM, Compound A 10 uM, 24 hours
Method: (§1) As discussed above, Ussing measurements was used to measure CFTR activity. In this method, primary lung epithelial cells (hBEs) with a Cystic Fibrosis-causing class III mutation were differentiated for a minimum of 4 weeks in an air-liquid interface on SnapWell™ filter plates prior to the Ussing measurements. Cells were apically mucus-washed for 30 minutes prior to treatment with compounds. The basolateral media was removed and replaced with media containing the compound of interest diluted to its final concentration from DMSO stocks. Treated cells were incubated at 37° C. and 5% CO2 for 24 hours. At the end of the treatment period, the cells on filters were transferred to the Ussing chamber and equilibrated for 30 minutes. The short-circuit current was measured in voltage clamp-mode (Vhold=0 mV), and the entire assay was conducted at a temperature of 36° C.-36.5° C. Once the voltages stabilized, the chambers were clamped, and data was recorded by pulse readings every 5 seconds. Following baseline current stabilization, the following additions were applied and the changes in current and resistance of the cells was monitored: • 1. Benzamil to the apical chamber to inhibit ENaC sodium channel. • 2. Forskolin to both chambers to activate ΔF508-CFTR by phosphorylation. • 3. Genistein or VX-770 (ivacaftor) to the apical chamber to potentiate ΔF508-CFTR channel opening. • 4. CFTRinh-172 to the apical chamber to inhibit ΔF508-CFTR Cl— conductance.
(§2) The forskolin-sensitive current and inhibitable current (that potentiated current that is blocked by CFTRinh-172) were measured as the specific activity of the ΔF508-CFTR channel, and increase in response to compound in this activity over that observed in vehicle-treated samples were identified as the correction of ΔF508-CFTR function imparted by the compound tested.
(§3) The results are shown below in Tables 5 and 6. VX-661 is 3 uM, Ivacaftor is 1 uM and Compound A is 10 uM.

[2] = molecular target: T1, ΔF508-CFTR (Homo sapiens, UniProt P13569, DEL508-508); assay: Ussing measurements, hBEs homozygous for ΔF508; format: cell-based; settings: compound at 10 uM and VX-809 at 3 uM; ΔF508 homozygous hBE, 24 hours; CFTRinh-172 inhibitable current
T1 construct: primary lung epithelial cells (hBEs) homozygous for the Cystic Fibrosis-causing ΔF508 mutation; endogenous in cells; host or cells: primary human bronchial epithelial cells (hBE), ΔF508/ΔF508, differentiated at air-liquid interface
T1 sequence (P13569 with tags, fused parts or gaps DEL508-508): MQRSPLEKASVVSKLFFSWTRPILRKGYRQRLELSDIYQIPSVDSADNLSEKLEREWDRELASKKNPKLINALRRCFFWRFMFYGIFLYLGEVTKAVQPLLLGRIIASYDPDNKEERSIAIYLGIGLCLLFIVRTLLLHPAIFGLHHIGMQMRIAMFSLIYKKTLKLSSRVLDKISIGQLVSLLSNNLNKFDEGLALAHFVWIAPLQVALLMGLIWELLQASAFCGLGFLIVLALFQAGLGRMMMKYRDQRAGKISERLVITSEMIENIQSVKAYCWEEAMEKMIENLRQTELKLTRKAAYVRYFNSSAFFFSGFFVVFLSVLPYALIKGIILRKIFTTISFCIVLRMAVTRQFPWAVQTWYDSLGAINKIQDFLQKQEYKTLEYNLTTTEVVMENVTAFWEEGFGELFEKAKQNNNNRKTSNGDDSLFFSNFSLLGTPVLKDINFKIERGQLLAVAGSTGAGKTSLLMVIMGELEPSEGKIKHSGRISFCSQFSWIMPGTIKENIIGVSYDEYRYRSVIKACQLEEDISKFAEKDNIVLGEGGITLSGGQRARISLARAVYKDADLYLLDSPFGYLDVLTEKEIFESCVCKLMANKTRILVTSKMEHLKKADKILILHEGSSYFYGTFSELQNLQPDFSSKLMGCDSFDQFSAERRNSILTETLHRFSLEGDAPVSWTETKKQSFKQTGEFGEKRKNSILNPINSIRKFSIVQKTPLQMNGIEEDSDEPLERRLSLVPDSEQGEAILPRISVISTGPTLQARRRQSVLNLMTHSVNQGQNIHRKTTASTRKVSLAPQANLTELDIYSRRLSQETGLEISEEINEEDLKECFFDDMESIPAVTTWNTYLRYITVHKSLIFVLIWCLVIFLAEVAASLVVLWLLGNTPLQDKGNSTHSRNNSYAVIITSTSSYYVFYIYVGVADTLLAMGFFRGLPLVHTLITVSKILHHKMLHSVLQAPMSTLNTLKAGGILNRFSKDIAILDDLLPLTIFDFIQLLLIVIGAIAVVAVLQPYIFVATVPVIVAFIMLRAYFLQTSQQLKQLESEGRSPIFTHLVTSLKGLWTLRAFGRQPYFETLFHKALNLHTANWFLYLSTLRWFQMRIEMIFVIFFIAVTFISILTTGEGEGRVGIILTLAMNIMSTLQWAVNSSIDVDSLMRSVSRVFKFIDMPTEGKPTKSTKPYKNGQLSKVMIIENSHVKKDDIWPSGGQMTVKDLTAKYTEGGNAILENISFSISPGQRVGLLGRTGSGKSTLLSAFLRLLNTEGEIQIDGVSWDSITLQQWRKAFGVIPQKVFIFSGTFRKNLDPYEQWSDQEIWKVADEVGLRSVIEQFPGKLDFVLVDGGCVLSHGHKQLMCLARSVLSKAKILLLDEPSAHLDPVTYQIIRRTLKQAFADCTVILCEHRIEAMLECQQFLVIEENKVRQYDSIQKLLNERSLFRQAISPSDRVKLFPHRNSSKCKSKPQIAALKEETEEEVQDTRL
Method: As discussed above, Ussing measurements can be used to measure CFTR activity. In this example, primary lung epithelial cells (hBEs) homozygous for the Cystic Fibrosis-causing ΔF508 mutation were differentiated for a minimum of 4 weeks in an air-liquid interface on SnapWell filter plates prior to the Ussing measurements. Cells were apically mucus-washed for 30 minutes prior to treatment with compounds. The basolateral media was removed and replaced with media containing the compound of interest diluted to its final concentration from DMSO stocks. Treated cells were incubated at 37° C. and 5% CO2 for 24 hours. At the end of the treatment period, the cells on filters were transferred to the Ussing chamber and equilibrated for 30 minutes. The short-circuit current was measured in voltage clamp-mode (Vhold=0 mV), and the entire assay was conducted at a temperature of 36° C.-36.5° C. Once the voltages stabilized, the chambers were clamped, and data was recorded by pulse readings every 5 seconds. Following baseline current stabilization, the following additions were applied and the changes in current and resistance of the cells was monitored: • 1. Benzamil to the apical chamber to inhibit ENaC sodium channel. • 2. Forskolin to both chambers to activate ΔF508-CFTR by phosphorylation. • 3. Genistein or VX-770 (ivacaftor) to both chambers to potentiate ΔF508-CFTR channel opening. • 4. CFTRinh-172 to the apical chamber to inhibit ΔF508-CFTR Cl— conductance.
The inhibitable current (that current that is blocked by CFTRinh-172) is measured as the specific activity of the ΔF508-CFTR channel, and increases in response to compound in this activity over that observed in vehicle-treated samples are identified as the correction of ΔF508-CFTR function imparted by the compound tested.
(§4) (** indicates activity ≥200% of VX-809 (1 uM) with compound at 10 uM and VX-809 at 1 uM; * indicates activity 100-200% of VX-809 (1 uM) with compound at 10 uM and VX-809 at 1 uM. ^## indicates activity ≥200% of VX-809 (3 uM) with compound at 10 uM and VX-809 at 3 uM; ^# indicates activity 100-200% of VX-809 (3 uM) with compound at 10 uM and VX-809 at 3 uM.

[3] = molecular target: T1, ΔF508-CFTR; assay: hBE Equivalent Current (Ieq) Assay; format: cell-based; settings: compound at 10 uM and VX-809 at 1 uM; ΔF508 homozygous hBE, 24 hours; AUC of equivalent chloride current
Method: Primary lung epithelial cells homozygous for the Cystic Fibrosis-causing ΔF508 mutation were differentiated for a minimum of 4 weeks in an air-liquid interface on Costar 24 well HTS filter plates prior to the equivalent current (Ieq) measurements. Cells were apically mucus-washed for 30 minutes 24 h prior to treatment with compounds. The basolateral media was removed and replaced with media containing the compound of interest diluted to its final concentration from DMSO stocks. Treated cells were incubated at 37° C. and 5% CO2 for 24 hours. At the end of the treatment period, the media was changed to the Ieq experimental solution for 30 minutes before the experiment and plates are maintained in a CO2-free incubator during this period. The plates containing the cells were then placed in pre-warmed heating blocks at 36° C.±0.5 for 15 minutes before measurements are taken. The transepithelial voltage (VT) and conductance (GT) were measured using a custom 24 channel current clamp (TECC-24) with 24 well electrode manifold. The Ieq assay measurements were made following additions with standardized time periods: • 1. The baseline VT and GT values were measured for approximately 20 minutes. • 2. Benzamil was added to block ENaC for 15 minutes. • 3. Forskolin plus VX-770 (ivacaftor) were added to maximally activate ΔF508-CFTR for 27 minutes. • 4. Bumetanide was added to inhibit the NaK2C1 cotransporter and shut-off secretion of chloride.
The activity data captured was the area under the curve (AUC) for the traces of the equivalent chloride current. The AUC was collected from the time of the forskolin/VX-770 addition until the inhibition by bumetanide addition. Correction in response to compound treatment was scored as the increase in the AUC for compound-treated samples over that of vehicle-treated samples.
as §4

[4] = test system: CFTR, G551D/F508del HBEs; assay: Ussing measurements, class III mutation hBEs (G551D/F508del); format: cell-based, human; settings: VX-661 3 uM, Ivacaftor 1 uM, Compound A 10 uM, 24 hours
Method: as §1, §2, §3

Compound | Ussing (% VX-809) [2] | Ieq (% VX-809) [3] | other results
Cc1ccc(NC(=O)C2(c3ccc4c(c3)OC(F)(F)O4)CC2)nc1-c1cccc(C(=O)O)c1 [VX-809, 3-(6-(1-(2,2-difluorobenzo[d][1,3]dioxol-5-yl)cyclopropanecarboxamido)-3-methylpyridin-2-yl)benzoic acid] |  |  | Activity in S549N/F508del HBEs [1]: 6.4 uAMP/cm^2
C[C@@H](O)c1nnc(C2CC(NC(=O)c3cc(-c4ccccc4)on3)C2)o1 (some centres unmarked) | ## (^## indicates activity ≥200% of VX-809 (3 uM) with compound at 10 uM and VX-809 at 3 uM) |  | 
O=C(NC[C@H]1C[C@H](c2nnc(CO)s2)C1)c1cc(-c2ccccc2)on1 |  | ** (** indicates activity ≥200% of VX-809 (1 uM) with compound at 10 uM and VX-809 at 1 uM) | 
O=C(N[C@H]1C[C@@H](Cc2nnc(CO)s2)C1)c1cc(-c2ccccc2)on1 | ## (^## indicates activity ≥200% of VX-809 (3 uM) with compound at 10 uM and VX-809 at 3 uM) | ** (** indicates activity ≥200% of VX-809 (1 uM) with compound at 10 uM and VX-809 at 1 uM) | 
O=C(N[C@H]1C[C@@H](c2nnc(CO)s2)C1)c1cc(-c2ccccc2)on1 |  | ** (** indicates activity ≥200% of VX-809 (1 uM) with compound at 10 uM and VX-809 at 1 uM) | 
O=C(N[C@H]1C[C@@H](n2ccc(CO)n2)C1)c1cc(-c2ccccc2)on1 |  | ** (** indicates activity ≥200% of VX-809 (1 uM) with compound at 10 uM and VX-809 at 1 uM) | 
O=C(N[C@H]1C[C@@H](n2nncc2CO)C1)c1cc(-c2ccccc2)on1 | ## (^## indicates activity ≥200% of VX-809 (3 uM) with compound at 10 uM and VX-809 at 3 uM) | ** (** indicates activity ≥200% of VX-809 (1 uM) with compound at 10 uM and VX-809 at 1 uM) | 
C[C@@H](O)c1cn([C@H]2C[C@@H](NC(=O)c3cc(-c4ccccc4)on3)C2)nn1 |  | ** (** indicates activity ≥200% of VX-809 (1 uM) with compound at 10 uM and VX-809 at 1 uM) | 
O=C(N[C@H]1C[C@H](Cc2nnc(CO)s2)C1)c1cc(-c2ccccc2)on1 |  | ** (** indicates activity ≥200% of VX-809 (1 uM) with compound at 10 uM and VX-809 at 1 uM) | 
O=C(N[C@H]1C[C@@H](n2cc(CO)cn2)C1)c1cc(-c2ccccc2)on1 |  | * (* indicates activity 100-200% of VX-809 (1 uM) with compound at 10 uM and VX-809 at 1 uM) | 
C[C@@H](O)c1cnnn1[C@H]1C[C@@H](NC(=O)c2cc(-c3ccccc3)on2)C1 |  | ** (** indicates activity ≥200% of VX-809 (1 uM) with compound at 10 uM and VX-809 at 1 uM) | 
O=C(N[C@H]1C[C@H](n2cc(CO)nn2)C1)c1cc(-c2ccccc2)on1 | ## (^## indicates activity ≥200% of VX-809 (3 uM) with compound at 10 uM and VX-809 at 3 uM) | * (* indicates activity 100-200% of VX-809 (1 uM) with compound at 10 uM and VX-809 at 1 uM) | 
C[C@H](O)c1cnnn1[C@H]1C[C@@H](NC(=O)c2cc(-c3ccccc3)on2)C1 | ## (^## indicates activity ≥200% of VX-809 (3 uM) with compound at 10 uM and VX-809 at 3 uM) | ** (** indicates activity ≥200% of VX-809 (1 uM) with compound at 10 uM and VX-809 at 1 uM) | 
O=C(NC1CC(c2nnc(CO)o2)C1)c1cc(-c2ccccc2)on1 (centres unmarked) | ## (^## indicates activity ≥200% of VX-809 (3 uM) with compound at 10 uM and VX-809 at 3 uM) |  | 
CC(C)(CO)c1cc2cc(NC(=O)C3(c4ccc5c(c4)OC(F)(F)O5)CC3)c(F)cc2n1C[C@@H](O)CO [VX-661, 1-(2,2-difluoro-1,3-benzodioxol-5-yl)-N-[1-[(2R)-2,3-dihydroxypropyl]-6-fluoro-2-(2-hydroxy-1,1-dimethylethyl)-1H-indol-5-yl]-cyclopropanecarboxamide] |  |  | Activity in G551D/F508del HBEs [4]: 3.8 uAMP/cm^2
C[C@H](O)c1cn([C@H]2C[C@@H](NC(=O)c3cc(-c4ccccc4)on3)C2)nn1 |  | ** (** indicates activity ≥200% of VX-809 (1 uM) with compound at 10 uM and VX-809 at 1 uM) | 
C[C@H](O)c1nnc(C2CC(NC(=O)c3cc(-c4ccccc4)on3)C2)o1 (some centres unmarked) | ## (^## indicates activity ≥200% of VX-809 (3 uM) with compound at 10 uM and VX-809 at 3 uM) |  | 
O=C(N[C@H]1C[C@H](n2nncc2CO)C1)c1cc(-c2ccccc2)on1 | ## (^## indicates activity ≥200% of VX-809 (3 uM) with compound at 10 uM and VX-809 at 3 uM) | * (* indicates activity 100-200% of VX-809 (1 uM) with compound at 10 uM and VX-809 at 1 uM) | 
O=C(NC[C@H]1C[C@@H](c2nnc(CO)s2)C1)c1cc(-c2ccccc2)on1 |  | ** (** indicates activity ≥200% of VX-809 (1 uM) with compound at 10 uM and VX-809 at 1 uM) | 
O=C(N[C@H]1C[C@@H](n2cc(CO)nn2)C1)c1cc(-c2ccccc2)on1 | ## (^## indicates activity ≥200% of VX-809 (3 uM) with compound at 10 uM and VX-809 at 3 uM) | ** (** indicates activity ≥200% of VX-809 (1 uM) with compound at 10 uM and VX-809 at 1 uM) | 
